Data from ChEMBL document CHEMBL1201862, “PubChem BioAssay data set” (2004).
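How tested: cells in 96-well plates exposed to compound for 48 hours at five concentrations. Here, GI50 denotes the concentration required for 50% inhibition of growth.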 The source made the active and inactive calls. No stated cut-off is given here; in the data, active = GI50 up to about 1.1 µM and inactive = higher.

Assays:
Assay in all cases: inhibition of tumour cell growth, NCI panel, 48 h
[1] = test system: UACC-62
[2] = test system: OVCAR-3
[3] = test system: SN12C
[4] = test system: K562
[5] = test system: HT-29
[6] = test system: NCI-H522
[7] = test system: SK-MEL-28
[8] = test system: Malme-3M
[9] = test system: CAKI-1
[10] = test system: U-251
[11] = test system: HCT-116
[12] = test system: ACHN
[13] = test system: NCI-H460
[14] = test system: COLO 205
[15] = test system: RXF 393

SMILES	GI50 [1]	GI50 [2]	GI50 [3]	GI50 [4]	GI50 [5]	GI50 [6]	GI50 [7]	GI50 [8]	GI50 [9]	GI50 [10]	GI50 [11]	GI50 [12]	GI50 [13]	GI50 [14]	GI50 [15]
COc1ccc(C(=O)C(c2ccc(OC)cc2)C2(O)C(=O)Nc3ccccc32)cc1 (stereo not drawn)	> 100 µM (inactive)	> 100 µM (inactive)	> 100 µM (inactive)	> 100 µM (inactive)	94.6 µM (inactive)	> 100 µM (inactive)	> 100 µM (inactive)	> 100 µM (inactive)	> 100 µM (inactive)	> 100 µM (inactive)	> 100 µM (inactive)	> 100 µM (inactive)	–	–	–
CCc1cccc(C)c1NC(=O)C(=O)CC(=O)c1ccc(Cl)s1	> 100 µM (inactive)	–	> 100 µM (inactive)	> 100 µM (inactive)	> 100 µM (inactive)	–	> 100 µM (inactive)	> 100 µM (inactive)	> 100 µM (inactive)	> 100 µM (inactive)	> 100 µM (inactive)	> 100 µM (inactive)	> 100 µM (inactive)	–	–
CCOC(=O)Cc1c(Cc2[nH]c(C(=O)OCc3ccccc3)c(CC(=O)OCC)c2CC(=O)OCC)[nH]c(C(=O)OCc2ccccc2)c1CC(=O)OCC	> 100 µM (inactive)	> 100 µM (inactive)	> 100 µM (inactive)	> 100 µM (inactive)	> 100 µM (inactive)	> 100 µM (inactive)	> 100 µM (inactive)	> 100 µM (inactive)	> 100 µM (inactive)	> 100 µM (inactive)	> 100 µM (inactive)	> 100 µM (inactive)	–	> 100 µM (inactive)	–
COC(=O)c1cccc2c3ccccc3c3ccccc3c12	24.3 µM (inactive)	21.4 µM (inactive)	45.4 µM (inactive)	29 µM (inactive)	29.5 µM (inactive)	36.4 µM (inactive)	41.5 µM (inactive)	73.5 µM (inactive)	40.4 µM (inactive)	26.1 µM (inactive)	37.8 µM (inactive)	79.3 µM (inactive)	–	16.6 µM (inactive)	24 µM (inactive)
COc1ccc(NCc2cc(OC)cc(OC)c2)cc1	9.48 µM (inactive)	11.9 µM (inactive)	36.1 µM (inactive)	3.88 µM (inactive)	6.7 µM (inactive)	7.62 µM (inactive)	24.5 µM (inactive)	40.4 µM (inactive)	9.75 µM (inactive)	24.4 µM (inactive)	15.6 µM (inactive)	45.6 µM (inactive)	20.1 µM (inactive)	9.33 µM (inactive)	13.7 µM (inactive)
CC(C)CCCC(C)[C@H]1CCC2[C@H]3C(CC[C@@]21C)[C@@]1(C)CCC=C[C@]12C[C@@H]2[C@@H]3O (stereo partly drawn)	> 100 µM (inactive)	> 100 µM (inactive)	> 100 µM (inactive)	–	> 100 µM (inactive)	> 100 µM (inactive)	> 100 µM (inactive)	> 100 µM (inactive)	> 100 µM (inactive)	> 100 µM (inactive)	> 100 µM (inactive)	> 100 µM (inactive)	> 100 µM (inactive)	> 100 µM (inactive)	> 100 µM (inactive)
S=C1NCCN1	> 100 µM (inactive)	> 100 µM (inactive)	> 100 µM (inactive)	> 100 µM (inactive)	> 100 µM (inactive)	> 100 µM (inactive)	> 100 µM (inactive)	> 100 µM (inactive)	> 100 µM (inactive)	> 100 µM (inactive)	> 100 µM (inactive)	> 100 µM (inactive)	–	> 100 µM (inactive)	–
CC(=O)Nc1ccc(/C=c2\sc3nnc(/C=C/c4ccccc4)n3c2=O)cc1	> 50 µM (inactive)	> 50 µM (inactive)	> 50 µM (inactive)	> 50 µM (inactive)	–	> 50 µM (inactive)	> 50 µM (inactive)	> 50 µM (inactive)	> 50 µM (inactive)	> 50 µM (inactive)	> 50 µM (inactive)	> 50 µM (inactive)	> 50 µM (inactive)	> 50 µM (inactive)	> 50 µM (inactive)
CC1(C)C(=O)CCC(=O)C(C)(C)C2=CC=C(O2)C(C)(C)C(=O)CCC(=O)C(C)(C)C2=CC=C1O2	–	> 100 µM (inactive)	–	> 100 µM (inactive)	> 100 µM (inactive)	> 100 µM (inactive)	> 100 µM (inactive)	> 100 µM (inactive)	> 100 µM (inactive)	> 100 µM (inactive)	> 100 µM (inactive)	> 100 µM (inactive)	> 100 µM (inactive)	> 100 µM (inactive)	> 100 µM (inactive)
CCn1c2ccccc2c2ccc3c(c21)C(=O)c1ccccc1C3=O	> 100 µM (inactive)	–	> 100 µM (inactive)	> 100 µM (inactive)	> 100 µM (inactive)	> 100 µM (inactive)	> 100 µM (inactive)	81.1 µM (inactive)	–	> 100 µM (inactive)	> 100 µM (inactive)	> 100 µM (inactive)	–	55.8 µM (inactive)	84.1 µM (inactive)
C=C1CC[C@@H]2C(C)(C)C(O)CCC2(C)C1COc1ccc2ccc(=O)oc2c1 (stereo partly drawn)	15.8 µM (inactive)	17.9 µM (inactive)	16.3 µM (inactive)	16.6 µM (inactive)	18.9 µM (inactive)	16.3 µM (inactive)	18.1 µM (inactive)	18.1 µM (inactive)	–	17.7 µM (inactive)	15.5 µM (inactive)	16.8 µM (inactive)	10.5 µM (inactive)	14.9 µM (inactive)	15.3 µM (inactive)
Cc1ccc(/C=C/C(=O)C(C)C)cc1	37.2 µM (inactive)	32.1 µM (inactive)	–	31.3 µM (inactive)	37.3 µM (inactive)	24.8 µM (inactive)	> 100 µM (inactive)	–	–	24.5 µM (inactive)	–	83.8 µM (inactive)	44.7 µM (inactive)	> 100 µM (inactive)	39.8 µM (inactive)
O=C(O)C1=C(O)C(C(=O)O)C23CCCCCCCCCCC12C(C(=O)O)C(O)=C3C(=O)O (stereo not drawn)	–	> 100 µM (inactive)	> 100 µM (inactive)	> 100 µM (inactive)	> 100 µM (inactive)	> 100 µM (inactive)	> 100 µM (inactive)	> 100 µM (inactive)	–	> 100 µM (inactive)	–	> 100 µM (inactive)	> 100 µM (inactive)	> 100 µM (inactive)	> 100 µM (inactive)
CC1(S)CC2C(CC1Sc1ccccc1)C2(C)C (stereo not drawn)	–	> 100 µM (inactive)	> 100 µM (inactive)	> 100 µM (inactive)	> 100 µM (inactive)	–	> 100 µM (inactive)	> 100 µM (inactive)	–	> 100 µM (inactive)	> 100 µM (inactive)	> 100 µM (inactive)	> 100 µM (inactive)	> 100 µM (inactive)	–
COC(=O)C1=C(C)N(NC(=O)c2ccccc2)C(C)(O)C12CCOC2=O (stereo not drawn)	> 100 µM (inactive)	> 100 µM (inactive)	> 100 µM (inactive)	> 100 µM (inactive)	> 100 µM (inactive)	> 100 µM (inactive)	> 100 µM (inactive)	0.0475 µM (active)	> 100 µM (inactive)	> 100 µM (inactive)	> 100 µM (inactive)	> 100 µM (inactive)	> 100 µM (inactive)	> 100 µM (inactive)	–
